Tested on: adult mongrel dogs
Assay: Phenylephrine-induced hypertension in four anesthetized dogs (Example 8)
Type: in vivo, dog
Details: after administ. of phenylephrine 10 min.; 10 µg/kg/min, before CGRP
Description: Example 6 was repeated by substantially almost same manner using four adult mongrel dogs, mean body weight 12.3±3.0 kg, applying same anesthetic condition. After setting up the experiment at more than 60 minutes passing and confirming to stabilize the depth of anesthesia and blood flow, phenylephrine (hypertensor) 10 µg/kg/min was administered.
Further after 10 minutes passed, the active ingredient, desalanyl-deamino-c-CGRP 10 µg/kg/hr was administered and at 10 min. and 20 min. after administration of the active ingredient, heart rate (HR) and mean a artery pressure (MAP) were measured.

With CNC[C@H](O)c1cccc(O)c1 [phenylephrine] the “HR: Heart rate” value was 138.0±9.3 beat/min and the “MAP: Mean artery pressure” value was 159.0±6.2 mmHg.
